Measurements reported in US9181234B2, “Antibacterial compounds” (priority 2010, dated 2015).
Values after ≈ are worked out from the molar mass of the structure shown. Like-named read-outs stand apart in the source and are kept apart here.

Columns and labels:
[1] = physchem; details: kinetic from dmso stock
Procedure, shortened: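 DMSO doubling dilutions were diluted twenty-fold into 100 mM citrate (pH 4), PBS (pH 7.4) or carbonate-bicarbonate (pH 9). After 24 h equilibration at room temperature, absorbance was read at 620 nm. The reported value is the highest concentration without measurable precipitate.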

[2] = system: Staphylococcus aureus (Isolate ID ATCC 29213); test: Antibacterial activity, MIC, S. aureus; assay type: cell-based; details: Staphylococcus aureus, ATCC29213, Gram positive strain; broth microdilution or agar dilution
Procedure, shortened: (§1)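 Broth microdilution or agar dilution per CLSI M7-A7; MIC read as susceptibility endpoint in liquid or solid medium.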

[3] = system: Enterococcus faecalis (Isolate ID ATCC 29212); test: Antibacterial activity, MIC, E. faecalis; assay type: cell-based; details: Enterococcus faecalis, ATCC29212; Gram positive strain; broth microdilution or agar dilution
Procedure, shortened: as §1

[4] = system: Streptococcus pyogenes (Isolate ID ATCC 51339); test: Antibacterial activity, MIC, S. pyogenes; assay type: cell-based; details: Streptococcus pyogenes, ATCC51339, Gram positive strain; broth microdilution or agar dilution
Procedure, shortened: as §1

[5] = system: Haemophilus influenzae (Isolate ID ATCC 49247); test: Antibacterial activity, MIC, H. influenzae; assay type: cell-based; details: Haemophilus influenzae, ATCC49247; Gram negative strain; broth microdilution or agar dilution
Procedure, shortened: as §1

[6] = Pharmacokinetic assay, IV and oral PK profile, rat; assay type: in vivo; details: for bioavailability: read-out: F (%) bioavailability
Experimental: Pharmacokinetic Assays: Determination of PK Profile
The pharmacokinetic profiles of compounds were determined by measuring the compound concentration in plasma by LC/MS/MS following a single intravenous or peroral administration of the compounds at a dose of 3 mg/kg. The concentrations described are the mean plasma concentrations at each time point from three animals. Intravenous dose formulation was administered as a single bolus dose through the tail vein. Oral dose formulation was administered to animals by an oral gavage needle. In both cases the dose volume was 5.0 mL/kg. Blood was collected from rats using a jugular vein catheter and from anesthetized mice through a capillary guided into the retro-orbital plexus. The collected blood was centrifuged to obtain plasma and the compounds extracted into methanol prior to determining the compound concentration by LC/MS/MS. The results for selected compounds of the invention are shown in FIGS. 2 to 8 where the X axis denotes time (hours) and the Y axis denotes plasma concentration (ng/mL). The Cmaxoral (μg/mL), AUCiv (μg·hr/mL), AUCoral (μg.hr/mL) and F(%) values are provided in the following table where Cmaxoral is the maximum oral concentration, AUC is area under the curve for intraveneous (IV) and oral and F (%) represents compound bioavailability as calculated by [AUCoral/AUCiv]×100%.

[7] = pH 7.4, aqueous buffer, Max Solubility
[8] = pH 7.4, aqueous buffer, Solubility (pH 7.4)
[9] = pH 7.4, aqueous buffer, Solubility Range
[10] = pH 7.4, aqueous buffer, Solubility Range (maximum solubility)
[11] = po, single peroral dose 3 mg/kg, plasma, read-out: AUCoral
[12] = single peroral dose 3 mg/kg, plasma
[13] = plasma, po, [AUCoral/AUCiv]×100%, 3 mg/kg
[14] = single intravenous dose 3 mg/kg, plasma, read-out: AUCiv

SMILES	solubility at 24 h [1, 7]	solubility at 24 h [1, 8]	solubility at 24 h [1, 9]	solubility at 24 h [1, 10]	MIC [2]	MIC [3]	MIC [4]	MIC [5]	F (%) bioavailability ([6]; [AUCoral/AUCiv]×100%, 3 mg/kg)	AUC [6, 11]	AUCiv ([6]; single intravenous dose 3 mg/kg, plasma)	Cmaxoral [6, 12]	bioavailability [6, 13]	AUC [6, 14]	solubility at 24 h ([1]; pH 9, aqueous buffer, Max Solubility)	solubility at 24 h ([1]; pH 9, aqueous buffer, Solubility Range (maximum solubility))
CCNC(=O)Nc1nc2cc(-c3cnc(N4CCC(C)(C(=O)O)CC4)nc3)cc(-c3ccccn3)c2s1 [Compound 1, 1-[5-[2-(ethylcarbamoylamino)-7-(2-pyridyl)-1,3-benzothiazol-5-yl]pyrimidin-2-yl]-4-methyl-piperidine-4-carboxylic acid]	≥ 800 µg/mL	≥ 800 µg/mL	> 800 µg/mL	> 800 µg/mL	≤ 0.25 µg/mL	≤ 0.25 µg/mL	≤ 0.25 µg/mL	1 to 16 µg/mL (≈ 1.93 to 30.9 µM)	48%	8300 ng·h/mL	17400 ng·h/mL	1800 ng/mL	–	–	–	–
CCNC(=O)Nc1nc2cc(-c3cnc(N4CCC(C)(C(=O)O)CC4)nc3)cc(-c3cscn3)c2s1 [Compound 21]	–	≥ 800 µg/mL	> 800 µg/mL	–	≤ 0.25 µg/mL	≤ 0.25 µg/mL	0.25 to 1 µg/mL (≈ 0.477 to 1.91 µM)	1 to 16 µg/mL (≈ 1.91 to 30.6 µM)	–	1000 ng·h/mL	–	400 ng/mL	14.3%	7100 ng·h/mL	–	–
CCNC(=O)Nc1nc2cc(-c3ccc(N4CCC(CC)(C(=O)O)CC4)nc3)cc(-c3ccccn3)c2s1 [Compound 103]	–	400 µg/mL (≈ 754 µM)	400 to 800 µg/mL (≈ 754 to 1510 µM)	–	≤ 0.25 µg/mL	≤ 0.25 µg/mL	≤ 0.25 µg/mL	1 to 16 µg/mL (≈ 1.88 to 30.2 µM)	–	22200 ng·h/mL	–	5700 ng/mL	76.5%	29000 ng·h/mL	≥ 800 µg/mL	> 800 µg/mL
CCNC(=O)Nc1nc2cc(-c3cnc(N4CCC(COC)(C(=O)O)CC4)nc3)cc(-c3ccccn3)c2s1 [Compound 141]	≥ 800 µg/mL	≥ 800 µg/mL	> 800 µg/mL	> 800 µg/mL	≤ 0.25 µg/mL	≤ 0.25 µg/mL	≤ 0.25 µg/mL	1 to 16 µg/mL (≈ 1.83 to 29.2 µM)	–	700 ng·h/mL	–	300 ng/mL	8.9%	8300 ng·h/mL	–	–
CCNC(=O)Nc1nc2cc(-c3cnc(N4CCCC4(C)C(=O)O)nc3)cc(-c3ccccn3)c2s1 (stereo not drawn) [Compound 163]	≥ 800 µg/mL	≥ 800 µg/mL	> 800 µg/mL	> 800 µg/mL	0.25 to 1 µg/mL (≈ 0.496 to 1.99 µM)	≤ 0.25 µg/mL	≤ 0.25 µg/mL	0.25 to 1 µg/mL (≈ 0.496 to 1.99 µM)	–	–	–	–	–	–	–	–
CCNC(=O)Nc1nc2cc(-c3cnc(N4CCC(C(=O)O)(C(F)(F)F)C4)nc3)cc(-c3ccccn3)c2s1 (stereo not drawn) [Compound 164]	–	≥ 800 µg/mL	> 800 µg/mL	–	1 to 16 µg/mL (≈ 1.79 to 28.7 µM)	1 to 16 µg/mL (≈ 1.79 to 28.7 µM)	0.25 to 1 µg/mL (≈ 0.448 to 1.79 µM)	> 16 µg/mL	–	–	–	–	–	–	–	–
CCNC(=O)Nc1nc2cc(-c3cnc(N4CC5CCCC5(C(=O)O)C4)nc3)cc(-c3ccccn3)c2s1 (stereo not drawn) [Compound 165]	–	≥ 800 µg/mL	> 800 µg/mL	–	≤ 0.25 µg/mL	≤ 0.25 µg/mL	≤ 0.25 µg/mL	1 to 16 µg/mL (≈ 1.89 to 30.2 µM)	–	–	–	–	–	–	–	–
CCNC(=O)Nc1nc2cc(-c3cnc(N4CCC(NC(=O)OC(C)(C)C)(C(=O)OC)CC4)nc3)cc(-c3ccccn3)c2s1 [Compound 167]	–	12.5 µg/mL (≈ 19.8 µM)	12.5 to 400 µg/mL (≈ 19.8 to 632 µM)	–	1 to 16 µg/mL (≈ 1.58 to 25.3 µM)	≤ 0.25 µg/mL	≤ 0.25 µg/mL	> 16 µg/mL	–	–	–	–	–	–	–	–
CCNC(=O)Nc1nc2cc(-c3cnc(N4CCC(N)(C(=O)OC)CC4)nc3)cc(-c3ccccn3)c2s1 [Compound 168]	–	25 µg/mL (≈ 46.9 µM)	12.5 to 400 µg/mL (≈ 23.5 to 751 µM)	–	0.25 to 1 µg/mL (≈ 0.469 to 1.88 µM)	≤ 0.25 µg/mL	1 to 16 µg/mL (≈ 1.88 to 30 µM)	> 16 µg/mL	–	–	–	–	–	–	–	–
CCNC(=O)Nc1nc2cc(-c3cnc(N4CCC(C)(C(=O)OC)CC4)nc3)cc(-c3ccccn3)c2s1 [Compound 169]	–	6.25 µg/mL (≈ 11.8 µM)	< 12.5 µg/mL	–	1 to 16 µg/mL (≈ 1.88 to 30.1 µM)	0.25 to 1 µg/mL (≈ 0.47 to 1.88 µM)	≤ 0.25 µg/mL	1 to 16 µg/mL (≈ 1.88 to 30.1 µM)	–	–	–	–	–	–	–	–
CCNC(=O)Nc1nc2cc(-c3cnc(N4CCC(=O)C(C)(C(=O)OC)C4)nc3)cc(-c3ccccn3)c2s1 (stereo not drawn) [Compound 170]	–	6.25 µg/mL (≈ 11.5 µM)	< 12.5 µg/mL	–	0.25 to 1 µg/mL (≈ 0.458 to 1.83 µM)	≤ 0.25 µg/mL	0.25 to 1 µg/mL (≈ 0.458 to 1.83 µM)	> 16 µg/mL	–	–	–	–	–	–	–	–
CCNC(=O)Nc1nc2cc(-c3cnc(N4CCC(C)(C(=O)OCC)CC4)nc3)cc(-c3ccccn3)c2s1 [Compound 171]	–	3.12 µg/mL (≈ 5.73 µM)	< 12.5 µg/mL	–	> 16 µg/mL	0.25 to 1 µg/mL (≈ 0.458 to 1.83 µM)	≤ 0.25 µg/mL	1 to 16 µg/mL (≈ 1.83 to 29.3 µM)	–	–	–	–	–	–	–	–
